Measurements published in patent US20020026053A1, “Novel 3-(substituted) -2- indolinones compounds and use thereof as inhibitors of protein kinase activity” (priority 1997, published 2002).

System: FLK-1 receptor
Assay: FLK-1 Assay (cellular/catalytic ELISA, VEGF-stimulated phosphotyrosine)
Format: cell-based
Set-up: concentration or dose not given beside the values
Details: protocol P.110
Procedure, shortened: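 Receptor phosphotyrosine ELISA: Flk-1-expressing NIH3T3 C7#3 cells, starved overnight in 0.1% FBS medium, received compound (1:200 final dilution, 0.5% DMSO) for 2 h at 37 °C, then VEGF. Anti-FLK-1-captured receptor was probed with anti-phosphotyrosine UB40 and peroxidase/ABTS read-out, relative to cells without compound.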

Cc1c(Br)cc(Br)c2c1C(=Cc1cccc(Cl)c1)C(=O)N2 [10736/H06]
Flk Kinase % Inhibition (P.110): 15.5%
